Laboratory results taken from the NIST ThermoML archive (doi:10.1016/j.jct.2019.02.025).

Columns and labels:
[1] = for mass density / kinematic viscosity: 101.33 kPa, Liquid; for mass density: Vibrating tube method; for surface tension liquid-gas / kinematic viscosity: Surface laser light scattering (SLLS)
[2] = refractive index (Na D-line) (dimensionless); conditions: 101.33 kPa, Liquid, Standard Abbe refractometry

CCCCCCCCCCCC(=O)OC [methyl dodecanoate]
Conditions | kinematic viscosity [m2/s] | mass density [kg/m3] | refractive index | surface tension liquid-gas [mN/m]
[1], 293.15 K | – | 869.26 | – | –
[1], 298.14 K | 2.81e-06 | – | – | 23.49
[1], 303.15 K | – | 861.25 | – | –
[1], 313.15 K | – | 853.32 | – | –
[1], 323.15 K | – | 845.42 | – | –
[1], 323.16 K | 1.9e-06 | – | – | 22.02
[1], 333.15 K | – | 837.53 | – | –
[1], 343.15 K | – | 829.63 | – | –
[1], 348.15 K | 1.44e-06 | – | – | 21.12
[1], 353.15 K | – | 820.84 | – | –
[1], 363.15 K | – | 813.94 | – | –
[1], 373.15 K | – | 806.11 | – | –
[1], 373.17 K | 1.14e-06 | – | – | 19.82
[1], 383.15 K | – | 798.22 | – | –
[1], 393.15 K | – | 790.34 | – | –
[1], 398.27 K | 9.1e-07 | – | – | 18.66
[1], 403.15 K | – | 782.4 | – | –
[1], 413.15 K | – | 774.39 | – | –
[1], 423.15 K | – | 766.34 | – | –
[1], 423.25 K | 7.36e-07 | – | – | 17.48
[1], 433.15 K | – | 758.26 | – | –
[1], 443.15 K | – | 750.06 | – | –
[1], 448.25 K | 5.99e-07 | – | – | 15.99
[1], 453.15 K | – | 741.94 | – | –
[2], 278.15 K | – | – | 1.43836 | –
[2], 283.15 K | – | – | 1.43629 | –
[2], 288.15 K | – | – | 1.43422 | –
[2], 293.15 K | – | – | 1.43216 | –
[2], 298.15 K | – | – | 1.43009 | –
[2], 303.15 K | – | – | 1.42802 | –
[2], 308.15 K | – | – | 1.42594 | –
[2], 313.15 K | – | – | 1.42383 | –
[2], 318.15 K | – | – | 1.42171 | –
[2], 323.15 K | – | – | 1.41959 | –
[2], 328.15 K | – | – | 1.4175 | –
[2], 333.15 K | – | – | 1.41542 | –
[2], 338.15 K | – | – | 1.41334 | –
[2], 343.15 K | – | – | 1.41127 | –
[2], 348.15 K | – | – | 1.40922 | –
[2], 353.15 K | – | – | 1.40717 | –
[2], 358.15 K | – | – | 1.40513 | –

CCCCCCC(=O)OC [methyl heptanoate]
Conditions | kinematic viscosity [m2/s] | mass density [kg/m3] | refractive index | surface tension liquid-gas [mN/m]
[1], 293.15 K | – | 879.29 | – | –
[1], 298.13 K | 1.22e-06 | – | – | 24.75
[1], 303.15 K | – | 870.75 | – | –
[1], 313.15 K | – | 861.6 | – | –
[1], 323.15 K | – | 852.39 | – | –
[1], 323.17 K | 8.92e-07 | – | – | 23
[1], 333.15 K | – | 843.15 | – | –
[1], 343.15 K | – | 833.87 | – | –
[1], 348.19 K | 6.79e-07 | – | – | 21.02
[1], 353.15 K | – | 824.55 | – | –
[1], 363.15 K | – | 814.17 | – | –
[1], 373.15 K | – | 805.69 | – | –
[1], 373.26 K | 5.32e-07 | – | – | 18.72
[1], 383.15 K | – | 796.11 | – | –
[1], 393.15 K | – | 786.44 | – | –
[1], 398.29 K | 4.34e-07 | – | – | 16.66
[1], 403.15 K | – | 776.63 | – | –
[1], 413.15 K | – | 766.7 | – | –
[1], 423.15 K | – | 756.62 | – | –
[1], 423.26 K | 3.66e-07 | – | – | 14.43
[1], 433.15 K | – | 746.31 | – | –
[1], 448.29 K | 3.14e-07 | – | – | 12.33
[2], 278.15 K | – | – | 1.41865 | –
[2], 283.15 K | – | – | 1.41643 | –
[2], 288.15 K | – | – | 1.41421 | –
[2], 293.15 K | – | – | 1.41199 | –
[2], 298.15 K | – | – | 1.40976 | –
[2], 303.15 K | – | – | 1.40753 | –
[2], 308.15 K | – | – | 1.4053 | –
[2], 313.15 K | – | – | 1.40301 | –
[2], 318.15 K | – | – | 1.4007 | –
[2], 323.15 K | – | – | 1.39841 | –
[2], 328.15 K | – | – | 1.39614 | –
[2], 333.15 K | – | – | 1.39389 | –
[2], 338.15 K | – | – | 1.39167 | –
[2], 343.15 K | – | – | 1.38946 | –
[2], 348.15 K | – | – | 1.38724 | –
[2], 353.15 K | – | – | 1.38501 | –
[2], 358.15 K | – | – | 1.38276 | –
